Test results reported in paper PMC6627486, “Ipomoeassin F Binds Sec61α to Inhibit Protein Translocation” (Journal of the American Chemical Society, 2019).

Tests used:
HCT116 = assay: cells; type: cell-based; conditions: Homo sapiens, HCT-116; HCT116, 72 h, Alamar Blue, assayed separately; read-out: Cytotoxicity (IC50)
Method: AlamarBlue Cytotoxicity Assay
MDA-MB-231, MCF-10A and HCT116. Viable cells were counted with a hemocytometer immediately before each experiment . Experiments were done in triplicate. First, 100 μL of MDA-MB-231 cells or MCF-10A cells at the density of 50,000 cells/mL was seeded in a 96-well plate (5,000 cells/well) and then incubated at 37 °C and 5% CO2 for 24 h. The compounds were dissolved in DMSO (dimethyl sulfoxide) to make drug stocks (10 mM). The stock solutions were diluted with the complete DMEM high glucose culture medium to make a series of gradient fresh working solutions right before each test. Subsequently, the cells were treated with 100 μL of the freshly made gradient working solution in a total volume of 200 μL/well for 72 h. After that, the media were discarded and 200 μL of the fresh complete medium containing 10% of AlamarBlue (resazurin) stock solution was added to each well. The plate was then incubated at 37 °C and 5% CO2 for another 3 h. Emission of each well at 620 nm was detected by a microplate reader (BioTek Synergy H1) at excitation 580 nm. For HCT116 WT and mutant lines, cells were seeded at 1000 cells/ well in complete McCoys medium. Compounds were diluted from a DMSO stock into culture medium as described above. Cells were treated for 96 h, then viability measured with AlamarBlue, detected using the conditions described but with a BMG Fluostar Optima Microplate Reader. The percentage of viability compared to the negative control (DMSO-treated cells) was determined. […]
HCT116 and HEK293T. Viable cells were counted using an automated cell counter (BioRad TC20) before each experiment. […] Emission of each well at 620 nm was detected by a microplate reader (Perkin Elmer EnSpire) at excitation 580 nm. The percentage of viability compared to the negative control (DMSO -treated cells) was determined. […]
Figure S1. […] (C) HCT116 colon carcinoma cells were treated with increasing concentrations of analogues 8, 14, 15, CT8, ipomoeassin F or carrier (0.1% DMSO) and cell viability was assessed at 72 h by the Alamar Blue assay (mean ± S.D., n = 4). […]

[1] = system: MDA-MB-231, MCF7, MCF-10A; assay: Cytotoxicity relative to ipomoeassin F across the cell lines of Table 1; type: cell-based, human; conditions: depending on the cell type (Table 1)
Method: Two human breast cancer cell lines (MDA-MB-231 and MCF7) and one human breast non-tumorigenic epithelial cell line (MCF-10A) were maintained in a DMEM high glucose culture medium supplemented with 10% fetal bovine serum (FBS) and 2 mM L-glutamine. The cells were grown in a humidified atmosphere of 5% CO2 and 95% air at 37 °C . The culture medi um w as changed every 2–4 days depending on cell density. Cell cultures were passaged once a week using 0.125% trypsin-EDTA to detach the cells from culture flasks/dishes.
The human colorectal cancer cell line HCT116 was maintained in McCoy’s 5A (modified) medium supplemented with 10% fetal bovine serum (FBS). […]
Viable cells were counted with a hemocytometer immediately before each experiment. […] Absorbance of formazan was detected by a microplate reader (BioTek Synergy H1) at 570 nm with 650 nm as the reference wavelength. The percentage of viability compared to the negative control (DMSO-treated cells) was determined . […]
MDA-MB-231, MCF-10A and HCT116. Viable cells were counted with a hemocytometer immediately before each experiment . […] Emission of each well at 620 nm was detected by a microplate reader (BioTek Synergy H1) at excitation 580 nm. […] Cells were treated for 96 h, then viability measured with AlamarBlue, detected using the conditions described but with a BMG Fluostar Optima Microplate Reader. […]

SMILES	IC50 (HCT116)	decrease in potency versus ipomoeassin F [1]
C/C=C(\C)C(=O)O[C@@H]1[C@@H](O)[C@@H]2O[C@H]3[C@H](O[C@@H](CCCCC)CCCCCCC(=O)CCC(=O)OC[C@@H](O2)[C@H]1OC(=O)/C=C/c1ccccc1)O[C@H](C)[C@H](OC(C)=O)[C@@H]3O [ipomoeassin F]	8 nM	
C/C=C(\C)C(=O)O[C@H]1[C@H](OC(=O)/C=C/c2ccc(OCc3cn(CCOCCOCCOCCNC(=O)CCCC[C@@H]4SC[C@@H]5NC(=O)N[C@@H]54)nn3)cc2)[C@@H](O)[C@@H]2O[C@H]3[C@H](O[C@@H](CCCCC)CCCCCCC(=O)CCC(=O)OC[C@H]1O2)O[C@H](C)[C@H](OC(C)=O)[C@@H]3O [compound 5]		~5 fold
